Results: ChEMBL document CHEMBL1126075, “Chemistry and anti-HIV properties of 2'-fluoro-2',3'-dideoxyarabinofuranosylpyrimidines” (J Med Chem, 1992)

How the values were obtained:
[1] = Partition coefficient (logP); assay type: physicochemical; conditions: octanol/water
ATH-8 cell line [2] = assay: Percent protection of ATH8 cells from HIV-induced cytopathic effects at a concentration of 0.5 uM.; assay type: functional, Homo sapiens
ATH-8 cell line [3] = assay: Percent cytotoxicity against ATH8 cells at a concentration of 1 uM.; assay type: functional; conditions: Homo sapiens
ATH-8 cell line [4] = assay: Percent protection of ATH8 cells from HIV-induced cytopathic effects at a concentration of 1 uM.; assay type: functional, Homo sapiens
ATH-8 cell line [5] = assay: Percent protection of ATH8 cells from HIV-induced cytopathic effects at a concentration of 5 uM.; assay type: functional, Homo sapiens
ATH-8 cell line [6] = assay: Percent cytotoxicity against ATH8 cells at a concentration of 5 uM.; assay type: functional; conditions: Homo sapiens
CCRF-CEM = assay: Effect on HIV-induced cytopathogenesis in CEM cells.; assay type: functional, cell-based; conditions: Homo sapiens
ATH-8 cell line [7] = assay: Percent cytotoxicity against ATH8 cells at a concentration of 0.2 uM.; assay type: functional; conditions: Homo sapiens
ATH-8 cell line [8] = assay: Percent protection of ATH8 cells from HIV-induced cytopathic effects at a concentration of 0.2 uM.; assay type: functional, Homo sapiens
[9] = Therapeutic index (IC50/EC50) was determined; conditions: read-out: TI
ATH-8 cell line [10] = assay: Percent cytotoxicity against ATH8 cells at a concentration of 0.5 uM.; assay type: functional; conditions: Homo sapiens

SMILES	logP [1]	Protection (ATH-8 cell line [2]) [%]	cytotoxicity at 1 µM (ATH-8 cell line [3]) [%]	Protection (ATH-8 cell line [4]) [%]	Protection (ATH-8 cell line [5]) [%]	cytotoxicity at 5 µM (ATH-8 cell line [6]) [%]	EC50 (CCRF-CEM) [µM]	IC50 (CCRF-CEM) [µM]	cytotoxicity at 0.2 µM (ATH-8 cell line [7]) [%]	Protection (ATH-8 cell line [8]) [%]	selectivity ratio [9]	cytotoxicity at 0.5 µM (ATH-8 cell line [10]) [%]
Cc1cn([C@@H]2O[C@H](CO)C[C@H]2F)c(=O)[nH]c1=O	-0.44	–	–	–	–	–	–	–	–	–	–	–
Nc1ccn([C@@H]2O[C@H](CO)C[C@@H]2F)c(=O)n1	-1.18	25	4	56	53	1	1.1	43	0	3	39	8
Nc1nc(=O)n(C2OC(CO)CC2F)cc1Cl (stereo not given)	-0.46	–	–	–	–	–	–	–	–	–	–	–
O=c1[nH]c(=O)n(C2OC(CO)CC2F)cc1F (stereo not given)	-0.72	–	–	–	–	–	–	–	–	–	–	–
Nc1nc(=O)n(C2OC(CO)CC2F)cc1F (stereo not given)	-0.92	8	8	7	73	0	57.7	> 580	0	0	> 10	0
O=c1ccn(C2OC(CO)CC2F)c(=O)[nH]1 (stereo not given)	-0.87	–	–	–	–	–	–	–	–	–	–	–
Nc1ccn([C@H]2CC[C@@H](CO)O2)c(=O)n1 [ZALCITABINE]	–	100	9	100	88	1	0.3	120	6	93	380	0

Second part, led by results:

logP [1]	SMILES	Protection (ATH-8 cell line [2]) [%]	cytotoxicity at 1 µM (ATH-8 cell line [3]) [%]	Protection (ATH-8 cell line [4]) [%]	Protection (ATH-8 cell line [5]) [%]	cytotoxicity at 5 µM (ATH-8 cell line [6]) [%]	EC50 (CCRF-CEM) [µM]	IC50 (CCRF-CEM) [µM]	cytotoxicity at 0.2 µM (ATH-8 cell line [7]) [%]	Protection (ATH-8 cell line [8]) [%]	selectivity ratio [9]	cytotoxicity at 0.5 µM (ATH-8 cell line [10]) [%]
-1.57	Nc1ccn([C@H]2C=C[C@@H](CO)O2)c(=O)n1	–	–	–	–	–	–	–	–	–	–	–
-1	O=c1ccn(C2CCC(CO)O2)c(=O)[nH]1 (stereo not given)	–	–	–	–	–	–	–	–	–	–	–
-1.09	Nc1nc(=O)n([C@@H]2CC[C@H](CO)O2)cc1F	96	1	100	99	4	0.1	> 40	0	71	> 400	0
-0.28	O=c1[nH]c(=O)n(C2OC(CO)CC2F)cc1Cl (stereo not given)	–	–	–	–	–	–	–	–	–	–	–
-1.94	O=c1ccn([C@@H]2O[C@H](CO)[C@@H](O)[C@H]2O)c(=O)[nH]1 [URIDINE]	–	–	–	–	–	–	–	–	–	–	–
